{"source": "ChEMBL document CHEMBL3044870", "about": "“Effect of clomazone on various market classes of dry beans” (Crop Prot, 2007)", "format_in_all_cases": "organism-based", "conditions_in_all_cases": "in vivo, other", "key": {"Phaseolus vulgaris [1]": {"test_system": "Phaseolus vulgaris", "test": "Phytotoxicity against Phaseolus vulgaris (dry beans) assessed as change in seed moisture content at 1116 to 2232 g a.i./ha applied pre-emergence 1 to 2 days post-planting relative to control"}, "Phaseolus vulgaris [2]": {"test_system": "Phaseolus vulgaris", "test": "Phytotoxicity against Phaseolus vulgaris (white beans) assessed as plant height at 1116 g a.i./ha applied pre-emergence 1 to 2 days post-planting measured on day 28 post-emergence (reference value: 36 cm)"}, "Phaseolus vulgaris [3]": {"test_system": "Phaseolus vulgaris", "test": "Phytotoxicity against Phaseolus vulgaris (brown beans) assessed as shoot dry weight at 1116 g a.i./ha applied pre-emergence 1 to 2 days post-planting measured on day 42 post-emergence (reference value: 149 g/m)"}, "Phaseolus vulgaris [4]": {"test_system": "Phaseolus vulgaris", "test": "Phytotoxicity against Phaseolus vulgaris (kidney beans) assessed as shoot dry weight at 2232 g a.i./ha applied pre-emergence 1 to 2 days post-planting measured on day 42 post-emergence (reference value: 145 g/m)"}, "Phaseolus vulgaris [5]": {"test_system": "Phaseolus vulgaris", "test": "Phytotoxicity against Phaseolus vulgaris (otebo beans) assessed as plant height at 2232 g a.i./ha applied pre-emergence 1 to 2 days post-planting measured on day 28 post-emergence (reference value: 38 cm)"}, "Phaseolus vulgaris [6]": {"test_system": "Phaseolus vulgaris", "test": "Phytotoxicity against Phaseolus vulgaris (yellow eye beans) assessed as visual crop injury at 1116 g a.i./ha applied pre-emergence 1 to 2 days post-planting measured on day 14 post-emergence relative to control"}, "Phaseolus vulgaris [7]": {"test_system": "Phaseolus vulgaris", "test": "Phytotoxicity against Phaseolus vulgaris (brown beans) assessed as shoot dry weight at 2232 g a.i./ha applied pre-emergence 1 to 2 days post-planting measured on day 42 post-emergence (reference value: 149 g/m)"}, "Phaseolus vulgaris [8]": {"test_system": "Phaseolus vulgaris", "test": "Phytotoxicity against Phaseolus vulgaris (kidney beans) assessed as visual crop injury at 1116 g a.i./ha applied pre-emergence 1 to 2 days post-planting measured on day 14 post-emergence relative to control"}, "Phaseolus vulgaris [9]": {"test_system": "Phaseolus vulgaris", "test": "Phytotoxicity against Phaseolus vulgaris (yellow eye beans) assessed as plant height at 2232 g a.i./ha applied pre-emergence 1 to 2 days post-planting measured on day 28 post-emergence (reference value: 38 cm)"}, "Phaseolus vulgaris [10]": {"test_system": "Phaseolus vulgaris", "test": "Phytotoxicity against Phaseolus vulgaris (black beans) assessed as plant height at 1116 g a.i./ha applied pre-emergence 1 to 2 days post-planting measured on day 28 post-emergence (reference value: 34 cm)"}, "Phaseolus vulgaris [11]": {"test_system": "Phaseolus vulgaris", "test": "Phytotoxicity against Phaseolus vulgaris (white beans) assessed as visual crop injury at 2232 g a.i./ha applied pre-emergence 1 to 2 days post-planting measured on day 14 post-emergence relative to control"}, "Phaseolus vulgaris [12]": {"test_system": "Phaseolus vulgaris", "test": "Phytotoxicity against Phaseolus vulgaris (otebo beans) assessed as shoot dry weight at 2232 g a.i./ha applied pre-emergence 1 to 2 days post-planting measured on day 42 post-emergence (reference value: 188 g/m)"}, "Phaseolus vulgaris [13]": {"test_system": "Phaseolus vulgaris", "test": "Phytotoxicity against Phaseolus vulgaris (pinto beans) assessed as plant height at 1116 g a.i./ha applied pre-emergence 1 to 2 days post-planting measured on day 28 post-emergence (reference value: 38 cm)"}, "Phaseolus vulgaris [14]": {"test_system": "Phaseolus vulgaris", "test": "Phytotoxicity against Phaseolus vulgaris (white beans) assessed as shoot dry weight at 1116 g a.i./ha applied pre-emergence 1 to 2 days post-planting measured on day 42 post-emergence (reference value: 175 g/m)"}, "Phaseolus vulgaris [15]": {"test_system": "Phaseolus vulgaris", "test": "Phytotoxicity against Phaseolus vulgaris (white beans) assessed as yield at 1116 g a.i./ha applied pre-emergence 1 to 2 days post-planting measured on day 42 post-emergence (reference value: 3 tons/ha)"}, "Phaseolus vulgaris [16]": {"test_system": "Phaseolus vulgaris", "test": "Phytotoxicity against Phaseolus vulgaris (black beans) assessed as shoot dry weight at 1116 g a.i./ha applied pre-emergence 1 to 2 days post-planting measured on day 42 post-emergence (reference value: 165 g/m)"}, "Phaseolus vulgaris [17]": {"test_system": "Phaseolus vulgaris", "test": "Phytotoxicity against Phaseolus vulgaris (yellow eye beans) assessed as yield at 1116 g a.i./ha applied pre-emergence 1 to 2 days post-planting measured on day 42 post-emergence (reference value: 2.3 tons/ha)"}, "Phaseolus vulgaris [18]": {"test_system": "Phaseolus vulgaris", "test": "Phytotoxicity against Phaseolus vulgaris (black beans) assessed as visual crop injury at 2232 g a.i./ha applied pre-emergence 1 to 2 days post-planting measured on day 14 post-emergence relative to control"}, "Phaseolus vulgaris [19]": {"test_system": "Phaseolus vulgaris", "test": "Phytotoxicity against Phaseolus vulgaris (otebo beans) assessed as yield at 2232 g a.i./ha applied pre-emergence 1 to 2 days post-planting measured on day 42 post-emergence (reference value: 3.4 tons/ha)"}, "Phaseolus vulgaris [20]": {"test_system": "Phaseolus vulgaris", "test": "Phytotoxicity against Phaseolus vulgaris (pinto beans) assessed as shoot dry weight at 1116 g a.i./ha applied pre-emergence 1 to 2 days post-planting measured on day 42 post-emergence (reference value: 168 g/m)"}, "Phaseolus vulgaris [21]": {"test_system": "Phaseolus vulgaris", "test": "Phytotoxicity against Phaseolus vulgaris (dry beans) assessed as visual crop injury at 1116 g a.i./ha applied pre-emergence 1 to 2 days post-planting measured on day 28 post-emergence relative to control"}, "Phaseolus vulgaris [22]": {"test_system": "Phaseolus vulgaris", "test": "Phytotoxicity against Phaseolus vulgaris (cranberry beans) assessed as shoot dry weight at 2232 g a.i./ha applied pre-emergence 1 to 2 days post-planting measured on day 42 post-emergence (reference value: 161 g/m)"}, "Phaseolus vulgaris [23]": {"test_system": "Phaseolus vulgaris", "test": "Phytotoxicity against Phaseolus vulgaris (black beans) assessed as visual crop injury at 1116 g a.i./ha applied pre-emergence 1 to 2 days post-planting measured on day 14 post-emergence relative to control"}, "Phaseolus vulgaris [24]": {"test_system": "Phaseolus vulgaris", "test": "Phytotoxicity against Phaseolus vulgaris (cranberry beans) assessed as shoot dry weight at 1116 g a.i./ha applied pre-emergence 1 to 2 days post-planting measured on day 42 post-emergence (reference value: 161 g/m)"}, "Phaseolus vulgaris [25]": {"test_system": "Phaseolus vulgaris", "test": "Phytotoxicity against Phaseolus vulgaris (kidney beans) assessed as yield at 2232 g a.i./ha applied pre-emergence 1 to 2 days post-planting measured on day 42 post-emergence (reference value: 2.3 tons/ha)"}, "Phaseolus vulgaris [26]": {"test_system": "Phaseolus vulgaris", "test": "Phytotoxicity against Phaseolus vulgaris (cranberry beans) assessed as visual crop injury at 2232 g a.i./ha applied pre-emergence 1 to 2 days post-planting measured on day 14 post-emergence relative to control"}, "Phaseolus vulgaris [27]": {"test_system": "Phaseolus vulgaris", "test": "Phytotoxicity against Phaseolus vulgaris (black beans) assessed as plant height at 2232 g a.i./ha applied pre-emergence 1 to 2 days post-planting measured on day 28 post-emergence (reference value: 34 cm)"}, "Phaseolus vulgaris [28]": {"test_system": "Phaseolus vulgaris", "test": "Phytotoxicity against Phaseolus vulgaris (otebo beans) assessed as yield at 1116 g a.i./ha applied pre-emergence 1 to 2 days post-planting measured on day 42 post-emergence (reference value: 3.4 tons/ha)"}, "Phaseolus vulgaris [29]": {"test_system": "Phaseolus vulgaris", "test": "Phytotoxicity against Phaseolus vulgaris (pinto beans) assessed as yield at 1116 g a.i./ha applied pre-emergence 1 to 2 days post-planting measured on day 42 post-emergence (reference value: 3.1 tons/ha)"}, "Phaseolus vulgaris [30]": {"test_system": "Phaseolus vulgaris", "test": "Phytotoxicity against Phaseolus vulgaris (brown beans) assessed as visual crop injury at 2232 g a.i./ha applied pre-emergence 1 to 2 days post-planting measured on day 14 post-emergence relative to control"}, "Phaseolus vulgaris [31]": {"test_system": "Phaseolus vulgaris", "test": "Phytotoxicity against Phaseolus vulgaris (dry beans) assessed as visual crop injury at 2232 g a.i./ha applied pre-emergence 1 to 2 days post-planting measured on day 7 post-emergence relative to control"}, "Phaseolus vulgaris [32]": {"test_system": "Phaseolus vulgaris", "test": "Phytotoxicity against Phaseolus vulgaris (kidney beans) assessed as shoot dry weight at 1116 g a.i./ha applied pre-emergence 1 to 2 days post-planting measured on day 42 post-emergence (reference value: 145 g/m)"}}, "data": [{"smiles": "CC1(C)CON(Cc2ccccc2Cl)C1=O", "note": "[CLOMAZONE]", "values": [{"measurement": "Activity", "setting": "Phaseolus vulgaris [1]", "result": "Non-toxic"}, {"measurement": "Activity", "setting": "Phaseolus vulgaris [2]", "result": 34, "unit": "cm"}, {"measurement": "Activity", "setting": "Phaseolus vulgaris [3]", "result": 139, "unit": "g/m"}, {"measurement": "Activity", "setting": "Phaseolus vulgaris [4]", "result": 116, "unit": "g/m"}, {"measurement": "Activity", "setting": "Phaseolus vulgaris [5]", "result": 34, "unit": "cm"}, {"measurement": "Activity", "setting": "Phaseolus vulgaris [6]", "result": 6, "unit": "%"}, {"measurement": "Activity", "setting": "Phaseolus vulgaris [7]", "result": 143, "unit": "g/m"}, {"measurement": "Activity", "setting": "Phaseolus vulgaris [8]", "result": 5, "unit": "%"}, {"measurement": "Activity", "setting": "Phaseolus vulgaris [9]", "result": 32, "unit": "cm"}, {"measurement": "Activity", "setting": "Phaseolus vulgaris [10]", "result": 34, "unit": "cm"}, {"measurement": "Activity", "setting": "Phaseolus vulgaris [11]", "result": 6, "unit": "%"}, {"measurement": "Activity", "setting": "Phaseolus vulgaris [12]", "result": 168, "unit": "g/m"}, {"measurement": "Activity", "setting": "Phaseolus vulgaris [13]", "result": 36, "unit": "cm"}, {"measurement": "Activity", "setting": "Phaseolus vulgaris [14]", "result": 174, "unit": "g/m"}, {"measurement": "Crop_yield", "setting": "Phaseolus vulgaris [15]", "result": 3.1, "unit": "tons/ha"}, {"measurement": "Activity", "setting": "Phaseolus vulgaris [16]", "result": 167, "unit": "g/m"}, {"measurement": "Crop_yield", "setting": "Phaseolus vulgaris [17]", "result": 2.6, "unit": "tons/ha"}, {"measurement": "Activity", "setting": "Phaseolus vulgaris [18]", "result": 13, "unit": "%"}, {"measurement": "Crop_yield", "setting": "Phaseolus vulgaris [19]", "result": 3.2, "unit": "tons/ha"}, {"measurement": "Activity", "setting": "Phaseolus vulgaris [20]", "result": 166, "unit": "g/m"}, {"measurement": "Activity", "setting": "Phaseolus vulgaris [21]", "result": 1, "unit": "%"}, {"measurement": "Activity", "setting": "Phaseolus vulgaris [22]", "result": 137, "unit": "g/m"}, {"measurement": "Activity", "setting": "Phaseolus vulgaris [23]", "result": 3, "unit": "%"}, {"measurement": "Activity", "setting": "Phaseolus vulgaris [24]", "result": 150, "unit": "g/m"}, {"measurement": "Crop_yield", "setting": "Phaseolus vulgaris [25]", "result": 2.3, "unit": "tons/ha"}, {"measurement": "Activity", "setting": "Phaseolus vulgaris [26]", "result": 14, "unit": "%"}, {"measurement": "Activity", "setting": "Phaseolus vulgaris [27]", "result": 30, "unit": "cm"}, {"measurement": "Crop_yield", "setting": "Phaseolus vulgaris [28]", "result": 3.4, "unit": "tons/ha"}, {"measurement": "Crop_yield", "setting": "Phaseolus vulgaris [29]", "result": 3.1, "unit": "tons/ha"}, {"measurement": "Activity", "setting": "Phaseolus vulgaris [30]", "result": 8, "unit": "%"}, {"measurement": "Activity", "setting": "Phaseolus vulgaris [31]", "result": 11, "unit": "%"}, {"measurement": "Activity", "setting": "Phaseolus vulgaris [32]", "result": 142, "unit": "g/m"}]}]}
